Data as given in publication PMC5904360, “Soluble N-Ethylmaleimide-Sensitive Factor Attachment Protein Receptor-Derived Peptides for Regulation of Mast Cell Degranulation” (Frontiers in Immunology, 2018).

Key:
NC/Nga mice = assay: DNCB-induced atopic dermatitis-like skin lesions; assay type: in vivo, mouse; conditions: 0.3 and 3% peptide/day or 0.1% dexamethasone/day for 4 weeks, n = 10 per group (Figure 5D)
Excerpt: Seven-week-old NC/Nga mice were purchased from the Shizuoka Laboratory Animal Center (Shizuoka, Japan) and allowed to adapt to the environment for a week prior to use. The procedures for the induction of atopic dermatitis-like symptoms in mice using 1-chloro-2,4-dinitro-benzene (DNCB) have been well described previously ([27]). Briefly, the dorsal hair of the mice was shaved 2 days before DNCB administration. For the induction of atopic dermatitis, 1% DNCB was applied to the dorsal skin of the mice twice weekly for 7 days and then 0.2% DNCB was applied thrice weekly for 21 days. The mice were divided into the following […] treatment groups (n = 10 per group): 0.3 and 3% Vp2N/day, 0.3 and 3% Vp8N/day, 0.1% dexamethasone/day, and vehicle only, dorsally administered from 9 to 13 weeks of age. As a negative control for atopic dermatitis, NC/Nga mice that were not treated with DNCB were maintained under pathogen-free conditions. Laboratory animal breeding management was based on the “Guide for the Care and Use of Laboratory Animals,” and all experiments were approved by the Institutional Animal Care and Use Committees of Gyeonggi Institute of Science & Technology.

[1] = topical glucocorticosteroid; cited from earlier work
RBL-2H3 mast cells [2] = assay: Degranulation assay, β-hexosaminidase release; assay type: cell-based, rat
RBL-2H3 mast cells [3] = assay: Degranulation assay, histamine release (enzyme immunoassay); assay type: cell-based, rat
SN23-Syn4-Vp2 complex = molecular target: T1, SN23-Syn4-Vp2 complex (Rattus norvegicus, UniProt O70377+P63045+Q08850); assay: Co-immunoprecipitation of SNARE complexes in activated RBL-2H3 cells, anti-SNAP-23 blot; assay type: cell-based; conditions: peptides added to the medium after A23187 pretreatment; IP of Vp2, blot anti-SNAP-23 (Figure 4C)
T1 construct: Lysates of RBL-2H3 cells; endogenous in cells; host or cells: RBL-2H3 (ATCC CRL-2256)
Experimental: (§1) Lysates of RBL-2H3 cells (0.5–1 × 10^6 cells), which were obtained by the addition of 1 mL lysis buffer (50 mM Tris–HCl, 150 mM NaCl, 1% Triton X-100™, 1 mM EDTA, pH 7.5) supplemented with a protease inhibitor cocktail (Calbiochem®, Merck Millipore, Billerica, MA, USA), were centrifuged at 13,000 g at 4°C to remove cell debris and precleared with 100 µL protein G Sepharose® (GE Healthcare) for 2 h at 4°C. The precleared lysates were incubated with antibodies against SNARE proteins (Syn4, SNAP-23, VAMP2, and VAMP8) for 2 h at 4°C for binding, and then the antibody–antigen complexes were precipitated by incubation with a protein G slurry overnight with constant shaking. After an extensive washing step with lysis buffer, an immunoblotting analysis was performed for the precipitates. The immunoprecipitated proteins and cell lysates were electrophoresed on 12% sodium dodecyl sulfate-polyacrylamide gel electrophoresis gels and then transferred to nitrocellulose blotting membranes (GE Healthcare). After blocking the membranes in TBST (10 mM Tris–HCl, 150 mM NaCl, and 0.05% Tween® 20, pH 8) containing 0.5% BSA and 5% skim milk for 1 h at room temperature, primary anti-SNAP-23 antibody (1:1,000 dilution) in TBST supplemented with 1% BSA and 0.01% sodium azide was added and incubated at 4°C overnight. The membranes were washed with TBST, treated with a horseradish peroxidase-conjugated secondary anti-mouse IgG antibody (A4416, Sigma-Aldrich), and visualized using enhanced chemiluminescence solution for the development of a luminescent signal.

SN23-Syn4-Vp8 complex = molecular target: T2, SN23-Syn4-Vp8 complex (Rattus norvegicus, UniProt O70377+Q08850+Q9WUF4); assay: as above; assay type: cell-based; conditions: peptides added to the medium after A23187 pretreatment; IP of Vp8, blot anti-SNAP-23 (Figure 4C)
T2 construct: Lysates of RBL-2H3 cells; endogenous in cells; host or cells: RBL-2H3 (ATCC CRL-2256)
T2 sequence (Q08850 1-298): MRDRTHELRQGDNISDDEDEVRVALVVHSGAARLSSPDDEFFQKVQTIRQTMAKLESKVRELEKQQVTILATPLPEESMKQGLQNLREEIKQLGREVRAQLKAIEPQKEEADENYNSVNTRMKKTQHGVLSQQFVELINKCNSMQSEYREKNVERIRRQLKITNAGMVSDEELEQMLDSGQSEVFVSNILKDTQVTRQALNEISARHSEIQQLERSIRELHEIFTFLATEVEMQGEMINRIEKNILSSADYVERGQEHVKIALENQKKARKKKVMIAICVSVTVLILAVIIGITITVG
T2 sequence (O70377 1-210): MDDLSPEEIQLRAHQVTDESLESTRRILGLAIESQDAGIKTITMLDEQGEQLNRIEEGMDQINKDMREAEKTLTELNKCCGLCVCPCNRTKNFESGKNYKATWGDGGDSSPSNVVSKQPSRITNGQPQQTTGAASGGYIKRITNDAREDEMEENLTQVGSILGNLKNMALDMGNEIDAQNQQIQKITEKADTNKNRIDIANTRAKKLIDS
T2 sequence (Q9WUF4 1-100): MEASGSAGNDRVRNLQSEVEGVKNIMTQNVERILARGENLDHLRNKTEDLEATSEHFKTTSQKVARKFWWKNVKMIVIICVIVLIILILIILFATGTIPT
Experimental: as §1

[4] = cells pretreated with A23187, sensitized with DNP-IgE, then PTD-conjugated peptide (Figure 4B)

T1 sequence (P63045 whole entry, one chain of several): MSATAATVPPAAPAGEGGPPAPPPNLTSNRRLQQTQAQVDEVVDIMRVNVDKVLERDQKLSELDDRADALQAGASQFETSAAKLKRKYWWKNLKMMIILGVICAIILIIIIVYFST

Row | SNARE complex formation in cells (amount of SN23-Syn4-Vp2 complex) (SN23-Syn4-Vp2 complex) | SNARE complex formation in cells (amount of SN23-Syn4-Vp8 complex) (SN23-Syn4-Vp8 complex) | SMILES | ear thickness (NC/Nga mice) | side effect [1] | reduction of β-hexosaminidase release (RBL-2H3 mast cells [2]; 10 µM PTD-fused peptide without SLO (LY294002 as positive control), DNP-BSA stimulation, no A23187 pretreatment, three independent experiments (Figure 2A gray bars, 2C)) | inhibition of β-hexosaminidase release after A23187 pretreatment (RBL-2H3 mast cells [2]; [4]) | inhibition of histamine release (RBL-2H3 mast cells [3]; PTD-conjugated peptide without SLO (LY294002 as positive control), DNP-IgE sensitized, DNP-BSA stimulation, no A23187 pretreatment, three independent experiments (Figure 2C)) | inhibition of histamine release after A23187 pretreatment (RBL-2H3 mast cells [3]; [4])
1 | – | – | C[C@@H]1C[C@H]2[C@@H]3CCC4=CC(=O)C=C[C@]4(C)[C@@]3(F)[C@@H](O)C[C@]2(C)[C@@]1(O)C(=O)CO [Dexamethasone, dexamethasone, reference compound] | recovered the ear thickness to the normal range | skin thinning | – | – | – | –
2 | did not inhibit | did not inhibit | O=c1cc(N2CCOCC2)oc2c(-c3ccccc3)cccc12 [LY294002, reference compound] | – | – | efficiently inhibited | efficiently inhibited | efficiently inhibited | efficiently inhibited
